According to patent US20240124504A1, “AROMATIC HETEROCYCLIC COMPOUND, AND PHARMACEUTICAL COMPOSITION AND APPLICATION THEREOF” (GT APEIRON THERAPEUTICS LIMITED, priority 2020, published 2024):
pIC50: −log10 of the molar value.

How the values were obtained:
[1] = molecular target: CDK7/cyclinH/MAT1 complex (Homo sapiens, UniProt P50613); experiment: In-vitro enzymatic inhibitory activity testing, CDK7 inhibition assay (Caliper EZ Reader II); assay type: biochemical; settings: CDK7/cyclinH/MAT1 6 nM, 180 min at 27° C.
Summary of the method: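 Enzyme preincubated 10 min with compound, then peptide substrate plus ATP added in 80 mM MES pH 6.5, 10 mM MgCl2 buffer; 180 min at 27 °C, stopped with EDTA.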

CDK9/cyclinT1 complex = CDK9/cyclinT1 complex (Homo sapiens, UniProt P50750); experiment: In-vitro enzymatic inhibitory activity testing, CDK9 inhibition assay (Caliper EZ Reader II); assay type: biochemical; settings: CDK9/cyclinT1 8 nM, 180 min at 27° C.
Summary of the method: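 Phosphorylated and unphosphorylated fluorescent peptide were resolved by mobility-shift electrophoresis, with IC50 taken from a nonlinear regression of dose-response data. Reactions ran 180 min at 27 °C in MES buffer pH 6.5 with MgCl2, after 10 min enzyme–compound preincubation, using 8 nM CDK9/cyclinT1 and 5-FAM-CDK9tide.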

ovarian cancer A2780 = experiment: Cell biological activity detection (CyQuant, 72 hours), A2780; assay type: cell-based, human; settings: A2780 cells, incubation for 72 hours
Summary of the method: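 IC50 derived from CyQuant Direct nuclear staining (488 nm excitation) after 72 h compound exposure at 37 °C, 5% CO2. Compounds tested in 9 concentrations from 10 μM, 1:4 steps, 0.2% DMSO, on A2780 or HCC70 cells plated overnight at 2000/well in RPMI 1640 + 10% FBS.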

Caco-2 cells = experiment: Caco-2 membrane permeability and efflux rate; assay type: in vitro ADME; settings: Caco-2, 5 μM, 2 hours; for Papp(B-A): basal end to top end; for Papp(A-B): top end to basal end
Experimental: (§1) The recovered Caco-2 cell suspension was seeded into a […] plate and cultured for 14-18 days. After being cultured for 14 days, the cells were fused and differentiated to be ready for a transport experiment. The Caco-2 cell plate was taken out from the incubator. Stock solutions of a to-be-tested compound and a control compound were formulated with DMSO and diluted with an HBSS (10 mM HEPES, pH 7.4) buffer to a final concentration of 5 μM. A test compound solution and a control drug solution were added to each well (top end) of an insert culture plate, and the HBSS (10 mM HEPES, pH 7.4) buffer was added to each well of a test compound receiving plate (basal end). When measuring the transport rate of the compound from the basal end to the top end, the test compound solution and the control drug solution were added to each well of the receiving plate (basal end), the HBSS (10 mM HEPES, pH 7.4) buffer solution was added to each well (top end) of the insert culture plate for the test compound solution, and incubation was carried out for 2 hours in a CO2 incubator at 37° C. After the transport experiment was completed, vortexing was carried out for 10 minutes at 1000 rpm. After sample quenching at each time point, LC/MS/MS analysis was carried out. A fluorescence value was measured after a two-hour transport experiment, a lucifer yellow solution was added in a transwell chamber (top end), a transport buffer solution was added in the basal end, and incubation was carried out for 30 minutes in the CO2 incubator at 37° C. The solution was taken out directly from the top end and the basal end (using basolateral wells) and transferred to a new 96-well plate. A cell fluorescence value was measured by a microplate reader (to detect membrane integrity), an excitation wavelength was […], and an emission wavelength was […]. All data were calculated by using Microsoft Excel, and a peak area was calculated according to chromatograms. An apparent permeability coefficient (Papp, unit: 10-6, cm/s) and an efflux rate (ER) of the compounds in Caco-2 cells were calculated by the specific concentrations of a receiving end and an administering end.

[2] = Caco-2 membrane permeability and efflux rate; assay type: in vitro ADME; settings: human, Caco-2, Caco-2, 5 μM; for Papp B→A at 2 h, 5 μM: basal end to top end; for efflux ratio at 2 h, 5 μM: read-out: ER (efflux rate); for Papp A→B at 2 h, 5 μM: top end to basal end
Experimental: as §1

CDK7/cyclinH/MAT1 complex, sequence (P50613 whole entry, species assumed): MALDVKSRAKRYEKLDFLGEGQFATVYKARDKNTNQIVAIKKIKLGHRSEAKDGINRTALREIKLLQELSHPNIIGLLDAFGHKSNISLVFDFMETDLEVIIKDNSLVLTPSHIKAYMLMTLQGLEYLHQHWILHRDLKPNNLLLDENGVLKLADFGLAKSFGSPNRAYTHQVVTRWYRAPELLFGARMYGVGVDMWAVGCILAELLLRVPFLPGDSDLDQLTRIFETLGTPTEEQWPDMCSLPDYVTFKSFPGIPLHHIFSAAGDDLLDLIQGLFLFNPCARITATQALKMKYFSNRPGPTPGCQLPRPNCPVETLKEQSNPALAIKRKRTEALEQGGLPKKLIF
CDK7/cyclinH/MAT1 complex, sequence (P51946 whole entry partner, species assumed): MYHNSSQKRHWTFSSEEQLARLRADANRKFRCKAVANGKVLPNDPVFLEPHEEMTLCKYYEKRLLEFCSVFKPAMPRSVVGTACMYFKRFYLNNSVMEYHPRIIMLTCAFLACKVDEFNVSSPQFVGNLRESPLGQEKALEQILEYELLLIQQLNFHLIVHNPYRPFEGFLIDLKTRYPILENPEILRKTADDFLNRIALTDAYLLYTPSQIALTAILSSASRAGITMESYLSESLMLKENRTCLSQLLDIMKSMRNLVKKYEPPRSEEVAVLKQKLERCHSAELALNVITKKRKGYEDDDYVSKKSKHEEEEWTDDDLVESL
CDK7/cyclinH/MAT1 complex, sequence (P51948 whole entry partner, species assumed): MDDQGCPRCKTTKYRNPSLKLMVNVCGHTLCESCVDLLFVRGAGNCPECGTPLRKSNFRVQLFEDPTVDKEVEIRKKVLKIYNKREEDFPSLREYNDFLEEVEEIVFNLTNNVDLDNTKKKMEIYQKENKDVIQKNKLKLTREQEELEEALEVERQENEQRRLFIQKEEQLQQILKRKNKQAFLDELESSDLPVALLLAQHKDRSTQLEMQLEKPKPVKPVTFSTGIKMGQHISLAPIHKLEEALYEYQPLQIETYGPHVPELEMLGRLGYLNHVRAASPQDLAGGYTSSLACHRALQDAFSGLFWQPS
CDK9/cyclinT1 complex, sequence (P50750 whole entry, species assumed): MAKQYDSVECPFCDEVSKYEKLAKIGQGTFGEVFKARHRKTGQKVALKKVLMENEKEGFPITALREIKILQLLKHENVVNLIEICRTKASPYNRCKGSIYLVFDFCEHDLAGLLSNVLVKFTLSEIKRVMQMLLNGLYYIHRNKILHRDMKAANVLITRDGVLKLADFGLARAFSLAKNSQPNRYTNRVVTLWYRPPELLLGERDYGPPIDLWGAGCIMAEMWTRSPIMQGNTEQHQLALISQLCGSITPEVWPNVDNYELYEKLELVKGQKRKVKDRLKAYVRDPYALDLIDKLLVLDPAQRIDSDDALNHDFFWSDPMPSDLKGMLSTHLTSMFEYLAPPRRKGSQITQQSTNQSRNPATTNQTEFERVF
CDK9/cyclinT1 complex, sequence (O60563 whole entry partner, species assumed): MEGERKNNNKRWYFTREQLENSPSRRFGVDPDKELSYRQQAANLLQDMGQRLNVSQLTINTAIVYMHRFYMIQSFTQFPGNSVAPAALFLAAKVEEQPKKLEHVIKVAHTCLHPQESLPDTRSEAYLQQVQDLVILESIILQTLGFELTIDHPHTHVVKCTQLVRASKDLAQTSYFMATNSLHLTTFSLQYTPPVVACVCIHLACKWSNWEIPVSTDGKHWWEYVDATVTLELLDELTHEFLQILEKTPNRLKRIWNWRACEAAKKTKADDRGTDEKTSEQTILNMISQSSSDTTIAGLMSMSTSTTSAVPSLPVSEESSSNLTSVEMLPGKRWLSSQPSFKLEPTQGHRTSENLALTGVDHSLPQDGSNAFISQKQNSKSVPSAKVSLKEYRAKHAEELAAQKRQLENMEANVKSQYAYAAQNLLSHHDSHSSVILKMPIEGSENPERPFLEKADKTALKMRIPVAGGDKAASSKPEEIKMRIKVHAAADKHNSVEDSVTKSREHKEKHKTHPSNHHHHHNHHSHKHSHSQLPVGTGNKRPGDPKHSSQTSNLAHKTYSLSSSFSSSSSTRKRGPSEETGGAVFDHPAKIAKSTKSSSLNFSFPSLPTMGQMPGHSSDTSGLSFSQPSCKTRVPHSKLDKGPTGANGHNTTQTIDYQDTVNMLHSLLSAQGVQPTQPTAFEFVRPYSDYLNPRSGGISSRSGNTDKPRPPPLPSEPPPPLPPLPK

SMILES | pIC50 [1] | pIC50 (CDK9/cyclinT1 complex) | pIC50 (ovarian cancer A2780) | ER (efflux rate) (Caco-2 cells) | Papp(B-A) (Caco-2 cells) | Papp(A-B) (Caco-2 cells) | pIC50 (ovarian cancer A2780; Homo sapiens, A2780, 72 h) | Papp B→A at 2 h, 5 μM [2] [×10⁻⁶ cm/s] | efflux ratio at 2 h, 5 μM [2] | Papp A→B at 2 h, 5 μM [2] [×10⁻⁶ cm/s]
CC(CO)CNc1ncc(C(F)(F)F)c(-c2c[nH]c3c(P(C)(C)=O)cccc23)n1 (single isomer, unassigned) [Compound 150] | > 7.70 | < 4.30 | 6.70 to 7.70 | 5.95 | 27.87 10^−6, cm/s | 4.68 10^−6, cm/s |  |  |  | 
CC(O)[C@H](C)Nc1ncc(C(F)(F)F)c(-c2c[nH]c3c(P(C)(C)=O)cccc23)n1 (single isomer, unassigned) [Compound 130] | > 7.70 | < 4.30 | 6.70 to 7.70 | 6.03 | 35.08 10^−6, cm/s | 5.82 10^−6, cm/s |  |  |  | 
CP(C)(=O)c1cccc2c(-c3nc(NC4(CO)CC(F)C4)ncc3C(F)(F)F)c[nH]c12 (stereo not drawn) [Compound 105, (3-(2-((3-fluoro-1-(hydroxymethyl)cyclobutyl)amino)-5-(trifluoromethyl)pyrimidin-4-yl)-1H-indole-7-yl)dimethylphosphine oxide] | 6.70 to 7.70 | < 4.30 |  |  |  |  | 6.70 to 7.70 | 21.9 | 7.32 | 2.99
CP(C)(=O)c1cccc2c(-c3nc(NC45CC(O)(C4)C5)ncc3C(F)(F)F)c[nH]c12 [Compound 174, (3-(2-((3-hydroxybicyclo[1.1.1]pentan-1-yl)amino)-5-(trifluoromethyl)pyrimidin-4-yl)-1H-indole-7-yl)dimethylphosphine oxide] | > 7.70 | 4.30 to 5.30 |  |  |  |  | > 7.70 | 34.8 | 17.1 | 2.03
CP(C)(=O)c1cccc2c(-c3nc(NC4(CO)CCOC4)ncc3C(F)(F)F)c[nH]c12 (single isomer, unassigned) [Compound 118] | > 7.70 | < 4.30 |  |  |  |  | > 7.70 | 33.8 | 16 | 2.11
CP(C)(=O)c1cccc2c(-c3nc(NC4(CO)CCOC4)ncc3C(F)(F)F)c[nH]c12 (single isomer, unassigned) [Compound 119] | 6.70 to 7.70 | < 4.30 | 6.70 to 7.70 | 15.3 | 34.09 10^−6, cm/s | 2.23 10^−6, cm/s |  |  |  | 
CP(C)(=O)c1cccc2c(-c3nc(NC[C@H](F)CO)ncc3C(F)(F)F)c[nH]c12 [Compound 86, (S)-(3-(2-((2-fluoro-3-hydroxypropyl)amino)-5-(trifluoromethyl)pyrimidin-4-yl)-1H-indole-7-yl)dimethylphosphine oxide] | > 7.70 | < 4.30 |  |  |  |  | > 7.70 | 29.5 | 20.5 | 1.44
CP(C)(=O)c1cccc2c(-c3nc(NC4(CO)CC(F)(F)C4)ncc3C(F)(F)F)c[nH]c12 [Compound 96, (3-(2-((3,3-difluoro-1-(hydroxymethyl)cyclobutyl)amino)-5-(trifluoromethyl)pyrimidin-4-yl)-1H-indole-7-yl)dimethylphosphine oxide] | 6.70 to 7.70 | < 4.30 |  |  |  |  | > 7.70 | 26.1 | 14.1 | 1.86
CP(C)(=O)c1cccc2c(-c3nc(NCC4CC4CO)ncc3C(F)(F)F)c[nH]c12 (single isomer, unassigned) [Compound 144] | 6.70 to 7.70 | < 4.30 | 6.70 to 7.70 | 12.7 | 36.73 10^−6, cm/s | 2.89 10^−6, cm/s |  |  |  | 
CP(C)(=O)c1cccc2c(-c3nc(N[C@H]4CCC[C@@H]4O)ncc3C(F)(F)F)c[nH]c12 [Compound 155, (3-(2-(((1S,2S)-2-hydroxycyclopentyl)amino)-5-(trifluoromethyl)pyrimidin-4-yl)-1hydro-indole-7-yl)dimethylphosphine oxide] | > 7.70 | 4.30 to 5.30 |  |  |  |  | > 7.70 | 24 | 4.31 | 5.57
C[C@@H](CO)Nc1ncc(C(F)(F)F)c(-c2c[nH]c3c(P(C)(C)=O)c(C#N)ccc23)n1 [Compound 79, (S)-7-(dimethylphosphoryl)-3-(2-((1-hydroxy-propan-2-yl)amino)-5-(trifluoromethyl)pyrimidin-4-yl)-1H-indole-6-carbonitrile] | > 7.70 | < 4.30 |  |  |  |  | > 7.70 | 22.3 | 4.38 | 5.1
CN(C)[C@H]1CC[C@H](Nc2ncc(C(F)(F)F)c(-c3c[nH]c4c(P(C)(C)=O)cccc34)n2)C1 [Compound 137, (3-(2-(((1S,3S)-3-(dimethylamino)cyclopentyl)amino)-5-(trifluoromethyl)pyrimidin-4-yl)-1H-indole-7-yl)dimethylphosphine oxide] | > 7.70 | 4.30 to 5.30 |  |  |  |  | > 7.70 | 34.6 | 12.4 | 2.79
CP(C)(=O)c1cccc2c(-c3nc(N[C@@H]4CCC[C@H]4O)ncc3C(F)(F)F)c[nH]c12 [Compound 156] | 6.70 to 7.70 | 4.30 to 5.30 |  |  |  |  | 6.70 to 7.70 | 20.6 | 3.87 | 5.32
C[C@@H](CO)Nc1ncc(C#N)c(-c2c[nH]c3c(P(C)(C)=O)cccc23)n1 [Compound 179, (S)-4-(7-(dimethylphosphoryl)-1H-indole-3-yl)-2-((1-hydroxypropan-2-yl)amino)pyrimidine-5-carbonitrile] | > 7.70 | < 4.30 |  |  |  |  | 6.70 to 7.70 | 33.5 | 65.9 | 0.51
C[C@H](CO)Nc1ncc(C(F)(F)F)c(-c2c[nH]c3c(P(C)(C)=O)cccc23)n1 [Compound 93, (R)-(3-(2-((1-hydroxypropyl-2-yl)amino)-5-(trifluoromethyl)pyrimidin-4-yl)-1H-indole-7-yl)dimethylphosphine oxide] | > 7.70 | < 4.30 |  |  |  |  | > 7.70 | 27 | 7.64 | 3.53
CC1(C)COCC(Nc2ncc(C(F)(F)F)c(-c3c[nH]c4c(P(C)(C)=O)cccc34)n2)CN1 (single isomer, unassigned) [Compound 91, (3-(2-((3,3-dimethyl-1,4-oxazepan-6-yl)amino)-5-(trifluoromethyl)pyrimidin-4-yl)-1H-indole-7-yl)dimethylphosphine oxide] | > 7.70 | < 4.30 |  |  |  |  | > 7.70 | 27.3 | 10.3 | 2.64
CP(C)(=O)c1cccc2c(-c3nc(NCC4CC4CO)ncc3C(F)(F)F)c[nH]c12 (single isomer, unassigned) [Compound 143] | > 7.70 | < 4.30 |  |  |  |  | 6.70 to 7.70 | 32.5 | 13.3 | 2.44
CP(C)(=O)c1cccc2c(-c3nc(NCC4CC(O)C4)ncc3C(F)(F)F)c[nH]c12 (stereo not drawn) [Compound 126, (3-(2-(((3-hydroxycyclobutyl)methyl)amino)-5-(trifluoromethyl)pyrimidin-4-yl)-1H-indole-7-yl)dimethylphosphine oxide] | > 7.70 | < 4.30 |  |  |  |  | 6.70 to 7.70 | 24.6 | 7.41 | 3.32
